Here are results for five compounds from BindingDB's records for doi:10.1016/j.bmcl.2008.11.037 (Wyeth Research, 2009).

This assay addresses Insulin-like growth factor 1 receptor (Homo sapiens, UniProt P08069). The assay can be described thus: In Vitro Kinase Inhibition Assay. The protocol: Assays were performed in microtiter plates in reaction buffer containing biotinylated substrate, ATP, and purified kinase in the presence of test compounds. After incubation, product was detected using a homogeneous time-resolved fluorescence quenching assay (LANCE).

Chain of Insulin-like growth factor 1 receptor (P08069 31-736 limits assumed): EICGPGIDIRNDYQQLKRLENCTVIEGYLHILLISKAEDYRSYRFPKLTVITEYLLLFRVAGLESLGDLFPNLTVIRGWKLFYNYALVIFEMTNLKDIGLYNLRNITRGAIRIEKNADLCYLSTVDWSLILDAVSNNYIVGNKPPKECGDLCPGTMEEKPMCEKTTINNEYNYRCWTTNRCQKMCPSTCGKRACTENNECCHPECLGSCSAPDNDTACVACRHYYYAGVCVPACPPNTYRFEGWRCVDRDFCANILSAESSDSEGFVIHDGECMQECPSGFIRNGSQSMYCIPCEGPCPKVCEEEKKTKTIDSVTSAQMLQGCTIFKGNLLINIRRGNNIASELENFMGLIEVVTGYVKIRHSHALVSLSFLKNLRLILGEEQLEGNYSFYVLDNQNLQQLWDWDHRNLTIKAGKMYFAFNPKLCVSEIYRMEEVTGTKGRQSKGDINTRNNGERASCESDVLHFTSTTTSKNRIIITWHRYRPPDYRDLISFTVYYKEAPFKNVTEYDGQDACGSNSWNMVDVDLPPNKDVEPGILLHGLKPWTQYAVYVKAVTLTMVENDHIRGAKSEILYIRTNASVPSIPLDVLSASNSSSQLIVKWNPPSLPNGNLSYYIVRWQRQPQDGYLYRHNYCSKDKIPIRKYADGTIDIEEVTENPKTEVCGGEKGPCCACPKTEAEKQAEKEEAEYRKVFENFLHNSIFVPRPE
Chain of Insulin-like growth factor 1 receptor (P08069 741-1367 limits assumed): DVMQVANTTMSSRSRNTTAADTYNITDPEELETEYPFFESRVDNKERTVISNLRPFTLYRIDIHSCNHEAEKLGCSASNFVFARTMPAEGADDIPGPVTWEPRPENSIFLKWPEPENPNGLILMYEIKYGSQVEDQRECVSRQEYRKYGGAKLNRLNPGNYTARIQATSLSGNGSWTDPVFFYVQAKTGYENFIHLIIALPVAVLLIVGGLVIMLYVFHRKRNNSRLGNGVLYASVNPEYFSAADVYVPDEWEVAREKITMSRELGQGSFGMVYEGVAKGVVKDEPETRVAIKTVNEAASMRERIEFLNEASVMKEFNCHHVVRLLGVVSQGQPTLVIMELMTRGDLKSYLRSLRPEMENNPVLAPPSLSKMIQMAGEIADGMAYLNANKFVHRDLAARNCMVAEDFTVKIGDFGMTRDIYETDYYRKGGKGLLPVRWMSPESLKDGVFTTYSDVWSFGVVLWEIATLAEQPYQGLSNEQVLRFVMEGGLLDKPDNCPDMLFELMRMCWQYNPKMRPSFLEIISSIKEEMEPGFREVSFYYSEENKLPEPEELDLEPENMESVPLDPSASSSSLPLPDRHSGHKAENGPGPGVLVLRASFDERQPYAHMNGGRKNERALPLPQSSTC

As usually defined, the IC50 is the point on the concentration scale where inhibition reaches its midpoint. A low value points to greater potency. `COc1cc2c(Nc3ccc(Sc4ncc(C)n4C)c(Cl)c3)c(C#N)cnc2cc1NCCCN(C)C` [4-({3-chloro-4-[(1,5-dimethyl-1H-imidazol-2-yl)sulfanyl]phenyl}amino)-7-{[3-(dimethylamino)propyl]amino}-6-methoxyquinoline-3-carbonitrile] gave an IC50 (pH 7.5, 22 °C) of 291 nM.

On to `CCn1c(Sc2ccc(Nc3c(C#N)cnc4cc(NCCCN5CCOCC5)c(OC)cc34)cc2Cl)nc(C)c1C` [4-({3-chloro-4-[(1-ethyl-4,5-dimethyl-1H-imidazol-2-yl)sulfanyl]phenyl}amino)-6-methoxy-7-{[3-(morpholin-4-yl)propyl]amino}quinoline-3-carbonitrile], for which, for the setting “pH 7.5, 22 °C”, the IC50 is 20 nM. Against the preceding compound, the IC50 is about 15-fold lower.

Regarding `COc1cc2c(Nc3ccc(Sc4ccccc4)cc3)c(C#N)cnc2cc1OCCCN1CCOCC1` [6-methoxy-7-[3-(morpholin-4-yl)propoxy]-4-{[4-(phenylsulfanyl)phenyl]amino}quinoline-3-carbonitrile], the IC50 was 1090 nM.

For the compound `CCOC(=O)C1CCN(CCCOc2cc3ncc(C#N)c(Nc4ccc(Sc5nc(C)c(C)n5CC)c(Cl)c4)c3cc2OC)CC1` [ethyl 1-(3-{[4-({3-chloro-4-[(1-ethyl-4,5-dimethyl-1H-imidazol-2-yl)sulfanyl]phenyl}amino)-3-cyano-6-methoxyquinolin-7-yl]oxy}propyl)piperidine-4-carboxylate], for the setting “pH 7.5, 22 °C”, the IC50 was found to be 135 nM.

`CCn1c(Sc2ccc(Nc3c(C#N)cnc4cc(OCCCN5CCN(CCOC(N)=O)CC5)c(OC)cc34)cc2Cl)nc(C)c1C` [{2-[4-(3-{[4-({3-chloro-4-[(1-ethyl-4,5-dimethyl-1H-imidazol-2-yl)sulfanyl]phenyl}amino)-3-cyano-6-methoxyquinolin-7-yl]oxy}propyl)piperazin-1-yl]ethyl} carbamate] registered a concentration for half-maximal inhibition (IC50) of 17 nM.
